Measurements from US20180201650A1 (BGI SHENZHEN, priority 2014, published 2018).

System: HVA calcium channel
Assay type: cell-based, rat

COC(=O)C1=C(C)NC(C)=C(C(=O)OC)C1c1ccccc1[N+](=O)[O-] [Nifedipine, reference compound] was tested. Which “current after loading (pA)” value did it give?
The value was −734.31 pA.

What about the “current before loading (pA)” value of the same compound?
Its value is −1471.35 pA.

What about the “inhibition rate (%)” value (10 μM) of the same compound?
The value was 50.09%.
